The record followed here is ChEMBL document CHEMBL4513139, “CO-ADD screening of University of Strathclyde (UK) compounds”.

Experiment [1] deals with Escherichia coli. Put plainly: microbe, parasite or virus in culture. The note with it: ATCC 25922, 18 h, ASSAY_TEST Inhibition of Bacterial Growth, detection method Absorption (OD600), MEDIA CAMHB, plate type 384well, NBS, CORNING #3640.
Description: Antibacterial activity against Escherichia coli ATCC 25922 (CO-ADD:GN_001); MIC in CAMBH media using NBS plates, by OD(600)
Experiment [2] has as its system HEK293. Put plainly: cells. The class given is functional, Homo sapiens, ATCC CRL1573. The note with it: ASSAY_TEST Inhibition of Cell Viability, detection method Resazurin, Fluorescence (ex560/em590), MEDIA DMEM with 10% FBS, plate type 384well, TC, CORNING #3712, time 18 hr.
Experiment [3] relates to Klebsiella pneumoniae. Description: microbe, parasite or virus in culture. The following applies: ATCC 700603, 18 h, ASSAY_TEST Inhibition of Bacterial Growth, detection method Absorption (OD600), MEDIA CAMHB, plate type 384well, NBS, CORNING #3640.
Description: Antibacterial activity against Klebsiella pneumoniae MDR ATCC 70063 (CO-ADD:GN_003); MIC in CAMBH media using NBS plates, by OD(600)
Experiment [4] concerns Candida albicans. Description: microbe, parasite or virus in culture. The note with it: ATCC 90028, ASSAY_TEST Inhibition of Fungal Growth, detection method Absorption (OD530), plate type 384well, NBS, CORNING #3640.
Description: Antifungal activity against Candida albicans ATCC 90028 (CO-ADD:FG_001); MIC in YNB media using NBS plates, by OD630
Experiment [5] concerns Pseudomonas aeruginosa. Put plainly: microbe, parasite or virus in culture. The note with it: ATCC 27853, 18 h, ASSAY_TEST Inhibition of Bacterial Growth, detection method Absorption (OD600), MEDIA CAMHB, plate type 384well, NBS, CORNING #3640.
Description: Antibacterial activity against Pseudomonas aeruginosa ATCC 27853 (CO-ADD:GN_042); MIC in CAMBH media using NBS plates, by OD(600)
Experiment [6] relates to Cryptococcus neoformans.
Description: Antifungal activity against Cryptococcus neoformans H99 ATCC 208821 (CO-ADD:FG_002); MIC in YNB media using NBS plates, by Resazurin OD(600-570)
Experiment [7] relates to Staphylococcus aureus. Put plainly: microbe, parasite or virus in culture. The note with it: ATCC 43300, 18 h, ASSAY_TEST Inhibition of Bacterial Growth, detection method Absorption (OD600), MEDIA CAMHB, plate type 384well, NBS, CORNING #3640.
Description: Antibacterial activity against Staphylococcus aureus MRSA ATCC 43300 (CO-ADD:GP_020); MIC in CAMBH media, using NBS plates, by OD(600)
Experiment [8] deals with Acinetobacter baumannii. Description: microbe, parasite or virus in culture. The note with it: ATCC 19606, 18 h, ASSAY_TEST Inhibition of Bacterial Growth, detection method Absorption (OD600), MEDIA CAMHB, plate type 384well, NBS, CORNING #3640.
Description: Antibacterial activity against Acinetobacter baumannii ATCC 19606 (CO-ADD:GN_034); MIC in CAMBH media using NBS plates, by OD600
Setting [9] is: Homo sapiens, ATCC CRL1573, HEK293, read-out: CC50.

The structures appear in SMILES notation. Converted amounts (≈) assume the structure as drawn. “And” between values parts separate entries of the source, which are not always exact repeats. Equal values may be shown once.

A word on the CC50: it is the concentration giving 50% cytotoxicity. For the compound `CC(=O)Nc1cc(C(=O)Nc2cc(C(=O)Nc3nc(C(=O)NCCCN(C)C)c(CCC(C)C)s3)n(C)c2)n(C)c1`, the MIC is over 32 µg/mL in experiment [1]; over 32 µg/mL in experiment [3]; over 32 µg/mL in experiment [4]; over 32 µg/mL in experiment [5]; 16 µg/mL in experiment [6]; 16 µg/mL in experiment [7]. Besides, the MIC in experiment [8] was over 32 µg/mL. Further, the CC50 in experiment [2] (setting [9]) is over 32 µg/mL.
In the case of `CN(C)CCNC(=O)c1cc(NC(=O)c2cc(NC(=O)c3ccc(/C=C/c4ccc(N(C)C)cc4)nc3)cn2C)cn1C.O=C(O)C(F)(F)F`, the MIC in experiment [1] was over 32 µg/mL; in experiment [3], over 32 µg/mL; in experiment [4], 1 µg/mL; in experiment [5], over 32 µg/mL; in experiment [7] it was 1 µg/mL; in experiment [8], over 32 µg/mL. In experiment [2] (setting [9]), the half-maximal cytotoxic concentration (CC50) amounted to 2.17 µg/mL.
`Cn1cc(NC(=O)c2ccc(/C=C/c3cnc4ccccc4c3)cc2)cc1C(=O)NCCN1CCOCC1.O=C(O)C(F)(F)F.O=C(O)C(F)(F)F`: the MIC in experiment [1] is over 32 µg/mL; in experiment [3] it was over 32 µg/mL; in experiment [4], over 32 µg/mL; in experiment [5], over 32 µg/mL; in experiment [6], 32 µg/mL; in experiment [7], 2 µg/mL. Besides, the MIC in experiment [8] is over 32 µg/mL. For the same compound, the CC50 in experiment [2] (setting [9]) was 2.42 µg/mL.
Regarding `Cn1cc(NC(=O)c2ccc(/C=C/c3cnc4ccccc4c3)cc2)cc1C(=O)Nc1cc(C(=O)NCCN2CCOCC2)n(CCCc2ccccc2)c1.O=C(O)C(F)(F)F.O=C(O)C(F)(F)F`, the MIC in experiment [1] is over 32 µg/mL; in experiment [3], over 32 µg/mL; in experiment [4] it was over 32 µg/mL; in experiment [5], over 32 µg/mL; in experiment [6] it was 4 µg/mL and 8 µg/mL; in experiment [7], over 32 µg/mL. In experiment [8], the MIC was over 32 µg/mL.
As to `Cn1cc(NC(=O)c2ccc(/C=C/c3cnc4ccccc4c3)cc2)cc1C(=O)Nc1cc(C(=O)NCCN2CCOCC2)n(CCCN=[N+]=[N-])c1.O=C(O)C(F)(F)F.O=C(O)C(F)(F)F`, the MIC in experiment [1] is over 32 µg/mL; in experiment [3], over 32 µg/mL; in experiment [4] it was over 32 µg/mL; in experiment [5] it was over 32 µg/mL; in experiment [6], 16 µg/mL; in experiment [7] it was 2 µg/mL. The MIC in experiment [8] was over 32 µg/mL. Also, the CC50 in experiment [2] (setting [9]) is 4.48 µg/mL.
For `COc1ccc(C(=N)Nc2cc(C(=O)Nc3nc(C(=O)NCCN4CCOCC4)c(CCc4ccccc4)s3)n(C)c2)cc1.O=C(O)C(F)(F)F.O=C(O)C(F)(F)F`, the MIC is over 32 µg/mL in experiment [1]; over 32 µg/mL in experiment [3]; over 32 µg/mL in experiment [4]; over 32 µg/mL in experiment [5]; 8 µg/mL in experiment [7]; over 32 µg/mL in experiment [8]. Further, the CC50 in experiment [2] (setting [9]) was found to be 8.88 µg/mL.
For `Cn1cc(NC(=O)c2cc(NC(=O)c3ccc(/C=C/c4cnc5ccccc5c4)cc3)cn2C)cc1C(=O)NCCC(=N)N.O=C(O)C(F)(F)F.O=C(O)C(F)(F)F`, the MIC in experiment [1] was over 32 µg/mL; in experiment [3], over 32 µg/mL; in experiment [4], 32 µg/mL; in experiment [5], over 32 µg/mL; in experiment [6] it was 8 µg/mL; in experiment [7], over 32 µg/mL. For the same compound, the MIC in experiment [8] was over 32 µg/mL. Also, the CC50 in experiment [2] (setting [9]) worked out at 6.55 µg/mL.
Consider `Cn1cc(NC(=O)c2cc(NC(=O)c3ccc(/C=C/c4ccc5nonc5c4)cc3)cn2C)cc1C(=O)NCCN1CCOCC1.O=C(O)C(F)(F)F`, for which the MIC in experiment [1], in experiment [3], in experiment [4], in experiment [5], in experiment [6] and in experiment [7] was over 32 µg/mL each time. The MIC in experiment [8] was over 32 µg/mL.
Consider `CC(C)CCc1sc(NC(=O)c2cc(NC(=O)c3cc(NC(=N)N)cn3C)cn2C)nc1C(=O)NCCCN(C)C.O=C(O)C(F)(F)F.O=C(O)C(F)(F)F`, for which the MIC in experiment [1] is over 32 µg/mL; in experiment [3], over 32 µg/mL; in experiment [4], over 32 µg/mL; in experiment [5] it was over 32 µg/mL; in experiment [6] it was 4 µg/mL; in experiment [7], 16 µg/mL. Besides, in experiment [8], the MIC was over 32 µg/mL. Besides, the CC50 in experiment [2] (setting [9]) worked out at 19.9 µg/mL.
`COc1cccc(/C=C/c2ccc(C(=O)Nc3cc(C(=O)Nc4cc(C(=O)NCCN5CCOCC5)n(C)c4)n(C)c3)cc2)c1.O=C(O)C(F)(F)F`: the MIC in experiment [1], in experiment [3], in experiment [4], in experiment [5], in experiment [7] and in experiment [8] was over 32 µg/mL in each case. In addition, the CC50 in experiment [2] stood at 3.46 µg/mL; in experiment [2] (setting [9]) it was 3.75 µg/mL.
Take `CN(C)CCNC(=O)c1cc(NC(=O)c2cc(NC(=O)c3ccc(/C=C/c4ccc(N(C)C)cc4)nc3)cn2C)cn1C.O=C(O)C(F)(F)F.O=C(O)C(F)(F)F`: the MIC in experiment [1] is over 32 µg/mL; in experiment [3], over 32 µg/mL; in experiment [4], 4 µg/mL; in experiment [5], over 32 µg/mL; in experiment [6], 2 µg/mL; in experiment [7], 2 µg/mL. In experiment [8], this compound displayed an MIC of over 32 µg/mL. The CC50 in experiment [2] (setting [9]) came to 1.13 µg/mL.
In the case of `Cn1cc(NC(=O)c2cc(NC=O)cn2C)cc1C(=O)NCCC(=N)N.O=C(O)C(F)(F)F`, the MIC in experiment [1], in experiment [3], in experiment [4], in experiment [5], in experiment [6] and in experiment [7] was over 32 µM throughout. In experiment [8], the MIC is over 32 µM. The CC50 in experiment [2] (setting [9]) was over 32 µg/mL.
In the case of `COc1ccc(C(=N)Nc2cc(C(=O)Nc3nc(C(=O)NCCN4CCOCC4)c(CCc4ccccc4)s3)n(C)c2)cc1`, the MIC in experiment [1] is over 32 µg/mL; in experiment [3] it was over 32 µg/mL; in experiment [4], over 32 µg/mL; in experiment [5], over 32 µg/mL; in experiment [6], 1 µg/mL; in experiment [7] it was 16 µg/mL. The MIC in experiment [8] is over 32 µg/mL. The CC50 in experiment [2] (setting [9]) turned out to be 7.47 µg/mL (≈ 12.1 µM).
With `Cn1cc(NC(=O)c2cc(NC(=O)c3ccc(/C=C/c4cnc5ccccc5c4)cc3)cn2C)cc1C(=O)NCCN1CCCC1=O.O=C(O)C(F)(F)F`, the MIC in experiment [1], in experiment [3], in experiment [4], in experiment [5], in experiment [6] and in experiment [7] was over 32 µg/mL in each case. This compound registered an MIC in experiment [8] of over 32 µg/mL. In experiment [2] (setting [9]), the CC50 is 12.7 µg/mL.
With `Cn1cc(NC(=O)c2cc(NC(=N)c3cnc4ccccc4c3)cn2C)cc1C(=O)NCCC(=N)N.O=C(O)C(F)(F)F.O=C(O)C(F)(F)F.O=C(O)C(F)(F)F`, the MIC in experiment [1], in experiment [3], in experiment [4], in experiment [5], in experiment [6] and in experiment [7] was over 32 µg/mL each time. In experiment [8], this compound showed an MIC of over 32 µg/mL. Further, the CC50 in experiment [2] (setting [9]) was over 32 µg/mL.
Consider `Cn1cc(NC(=O)c2ccc(/C=C/c3cnc4ccccc4c3)cc2)cc1C(=O)Nc1nc(C(=O)NCCN2CCOCC2)c(C2CCCCC2)s1.O=C(O)C(F)(F)F.O=C(O)C(F)(F)F`, for which the MIC in experiment [1], in experiment [3], in experiment [4], in experiment [5], in experiment [6] and in experiment [7] was over 32 µg/mL throughout. Moreover, the MIC in experiment [8] was over 32 µg/mL. The CC50 in experiment [2] (setting [9]) is over 32 µg/mL.
In the case of `Cn1cc(NC(=O)c2cc(NC(=O)c3ccc(/C=C/C4CC4)cc3)cn2C)cc1C(=O)NCCN1CCOCC1.O=C(O)C(F)(F)F`, the MIC in experiment [1] is over 32 µg/mL; in experiment [3] it was over 32 µg/mL; in experiment [4] it was over 32 µg/mL; in experiment [5] it was over 32 µg/mL; in experiment [6], 32 µg/mL; in experiment [7], over 32 µg/mL. This compound displayed an MIC in experiment [8] of over 32 µg/mL.
In the case of `COc1ccc(/C=C/c2ccc(C(=O)Nc3cc(C(=O)Nc4nc(C(=O)NCCN5CCOCC5)c(C5CCCCC5)s4)n(C)c3)cn2)cc1.O=C(O)C(F)(F)F.O=C(O)C(F)(F)F`, the MIC in experiment [1], in experiment [3], in experiment [4], in experiment [5], in experiment [6] and in experiment [7] was over 32 µM throughout. In addition, the MIC in experiment [8] is over 32 µM. Further, in experiment [2] (setting [9]), the CC50 worked out at 4.56 µg/mL.
In the case of `COc1ccc(/C=C/c2ccc(C(=O)Nc3cc(C(=O)Nc4nc(C(=O)NCCN5CCOCC5)c(CCc5ccccc5)s4)n(C)c3)cn2)cc1.O=C(O)C(F)(F)F.O=C(O)C(F)(F)F`, the MIC in experiment [1], in experiment [3], in experiment [4], in experiment [5], in experiment [6] and in experiment [7] was over 32 µg/mL in each case. The MIC in experiment [8] was over 32 µg/mL. Also, in experiment [2] (setting [9]), the CC50 is over 32 µg/mL.
